The target of this test is T1, Syk (Homo sapiens, UniProt P43405).
T1 construct: purchased Carna Biosciences
As to the kind of experiment: Syk HTRF assay. It counts as biochemical. In a few lines:
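HTRF kinase assay in HEPES pH 7.6 buffer with MgCl2, DTT and Triton X100; start mix of 87.5 μM ATP and 80 nM biotinylated peptide, 1 h at room temperature. EDTA stop, then Eu-anti-phosphotyrosine/streptavidin-DyLight 647 detection, read as 665/615 nm emission ratio.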

Setting [1] is: activity levels A-D, read-out: Activity Level (IC50 in the Syk HTRF assay).
The mark [2] stands for this setting: read-out: Activity Level (Syk HTRF assay IC50).
Setting [3] is: IC50 activity level, read-out: Activity Level.

Read-outs that look alike come from different tables or passages of the source.

As to `OC[C@@H]1CCCN1Cc1cccc2nc(Nc3ccc(C(F)(F)F)cc3)nn12` [Example 271, (S)-(1-((2-(4-(trifluoromethyl)phenylamino)-[1,2,4]triazolo[1,5-a]pyridin-5-yl)methyl)pyrrolidin-2-yl)methanol], the IC50 under setting [1] lay within 1000 to 10000 nM.

Turning to `N#Cc1cccc(Nc2nc3cccc(-c4ccccc4)n3n2)c1` [compound 66, 3-(5-phenyl-[1,2,4]triazolo[1,5-a]pyridin-2-ylamino)benzonitrile], the IC50 under setting [2] lay in the range of 1000 to 10000 nM.

As for `Fc1ccc(Nc2nc3cccc(-c4ccc5cn[nH]c5c4)n3n2)cc1` [Example 436, N-(4-fluorophenyl)-5-(1H-indazol-6-yl)-[1,2,4]triazolo[1,5-a]pyridin-2-amine], the IC50 under setting [3] was 0.005 to 250 nM.

With `C[C@H](Cc1cccc2nc(Nc3ccccc3)nn12)C(N)=O` [Example 460, (R)-2-methyl-3-(2-(phenylamino)-[1,2,4]triazolo[1,5-a]pyridin-5-yl)propanamide], under setting [3], the IC50 fell in the range of 1000 to 10000 nM.

As to `CNC(=O)c1ccc(Nc2nc3cccc(-c4cccc(O)c4)n3n2)c(OC)c1` [compound 15, 4-(5-(3-hydroxyphenyl)-[1,2,4]triazolo[1,5-a]pyridin-2-ylamino)-3-methoxy-N-methylbenzamide], under setting [2], the IC50 lay in the range of 500 to 1000 nM.

For the compound `c1ccc(Nc2nc3cccc(-c4ccncc4)n3n2)cc1` [Example 528, N-phenyl-5-(pyridin-4-yl)-[1,2,4]triazolo[1,5-a]pyridin-2-amine], under setting [3], the IC50 lay within 250 to 500 nM.

Take `NC(=O)c1cc(Nc2nc3cccc(-c4ccccc4)n3n2)ccn1` [compound 51, 4-(5-phenyl-[1,2,4]triazolo[1,5-a]pyridin-2-ylamino)picolinamide]: the IC50 under setting [2] fell in the range of 1000 to 10000 nM.

As to `Cn1ncc2ccc(Nc3nc4cccc(N[C@H]5CCCNC5)n4n3)cc21` [Example 466, (S)-N^2-(1-methyl-1H-indazol-6-yl)-N^5-(piperidin-3-yl)-[1,2,4]triazolo[1,5-a]pyridine-2,5-diamine], the IC50 under setting [3] was 0.005 to 250 nM.

On to `CC1CNC(=O)CN1Cc1cccc2nc(Nc3ccc(C(F)(F)F)cc3)nn12` (stereo not drawn) [Example 258, 5-methyl-4-((2-(4-(trifluoromethyl)phenylamino)-[1,2,4]triazolo[1,5-a]pyridin-5-yl)methyl)piperazin-2-one], for which, under setting [1], the IC50 lay in the range of 500 to 1000 nM.

Consider `O[C@H]1CC[C@@H](Nc2cccc3nc(Nc4ccncc4)nn23)CC1` [Example 389, cis-4-(2-(pyridin-4-ylamino)-[1,2,4]triazolo[1,5-a]pyridin-5-ylamino)cyclohexanol], for which the IC50 under setting [1] is 1000 to 10000 nM.

Regarding `CC1C(=O)NCCN1Cc1cccc2nc(Nc3ccc(C(F)(F)F)cc3)nn12` (stereo not drawn) [Example 281, 3-methyl-4-((2-(4-(trifluoromethyl)phenylamino)-[1,2,4]triazolo[1,5-a]pyridin-5-yl)methyl)piperazin-2-one], the IC50 under setting [1] was in the range of 0.005 to 250 nM.

In the case of `OCCCOc1cccc2nc(Nc3ccc(C(F)(F)F)cc3)nn12` [Example 304, 3-(2-(4-(trifluoromethyl)phenylamino)-[1,2,4]triazolo[1,5-a]pyridin-5-yloxy)propan-1-ol], under setting [1], the IC50 lay within 1000 to 10000 nM.

Consider `CC(c1cccc2nc(Nc3ccc(C(F)(F)F)cc3)nn12)N1CCNC(=O)C1` (stereo not drawn) [Example 263, 4-(1-(2-(4-(trifluoromethyl)phenylamino)-[1,2,4]triazolo[1,5-a]pyridin-5-yl)ethyl)piperazin-2-one], for which, under setting [1], the IC50 was in the range of 0.005 to 250 nM.

Consider `NCc1ccc(Nc2nc3cccc(-c4cccc(O)c4)n3n2)cc1` [compound 24, 3-(2-(4-(aminomethyl)phenylamino)-[1,2,4]triazolo[1,5-a]pyridin-5-yl)phenol], for which, under setting [2], the IC50 was in the range of 250 to 500 nM.

`Nc1n[nH]c2cc(Nc3nc4cccc(N[C@H]5CC[C@@H](O)CC5)n4n3)ccc12` [Example 216, cis-4-(2-(3-amino-1H-indazol-6-ylamino)-[1,2,4]triazolo[1,5-a]pyridin-5-ylamino)cyclohexanol]: under setting [1], the IC50 was 0.005 to 250 nM.
